Measured values from US4520022A, “Substituted vinyl cephalosporins” (priority 1983, dated 1985).
≈ marks a conversion by molar mass, not a printed value. Like-named read-outs stand apart in the source and are kept apart here.

Key:
[1] = tested on: Gp Ia: S. aureus Smith A9537, A9497, Terajima, A9534, A9601; conditions: Staphylococcus aureus, read-out: Minimum Inhibitory Concentration Gp Ia, Mueller-Hinton agar, average of five organisms
[2] = in vivo; conditions: mouse; for half-life: T1/2
[3] = tested on: Gp Ib: S. aureus 193, BX-1633-2 A9606, A15092, Russell, A9602; conditions: Staphylococcus aureus, read-out: Minimum Inhibitory Concentration Gp Ib, Mueller-Hinton agar, average of five organisms
[4] = mouse, in vivo
[5] = tested on: E. coli Juhl; assay: Protective dose, mice infected with lethal inoculum, oral treatment, E. coli Juhl; format: in vivo; conditions: for ED50: Escherichia coli, po, 120 h, oral, 50% survival for 5 days, groups of 5 mice, read-out: Protective dose (PD50), E. coli Juhl
[6] = tested on: S. aureus Smith; assay: Protective dose, mice infected with lethal inoculum, oral treatment, S. aureus Smith; format: in vivo; conditions: Staphylococcus aureus, po, 120 h, oral; 50% survival for 5 days; groups of 5 mice; read-out: Protective dose (PD50), S. aureus Smith

| SMILES | MIC ([1]; run 1) [µg/mL] | AUC ([2]; im, 20 mg/kg, AUC*) [ng·h/mL] | Cmax ([2]; im, 20 mg/kg) [ng/mL] | half-life ([2]; im, 20 mg/kg) [h] | AUC ([2]; po, 20 mg/kg, AUC*) [ng·h/mL] | Cmax ([2]; po, 20 mg/kg) [ng/mL] | half-life ([2]; po, 20 mg/kg) [h] | AUC ([2]; po, 100 mg/kg, AUC) [ng·h/mL] | Cmax ([2]; po, 100 mg/kg) [ng/mL] | half-life ([2]; po, 100 mg/kg) [h] | MIC ([3]; run 1) [µg/mL] | oral absorption ([4]; po) | T1/2 ([4]; im, 20 mg/kg) [h] | T1/2 ([4]; po, 20 mg/kg) [h] | T1/2 ([4]; po, 100 mg/kg) [h] | ED50 [5] [mg/kg] | activity against the Gram- infection ([5]; in words) | ED50 [6] [mg/kg] | MIC ([1]; run 2) [µg/mL] | MIC ([3]; run 2) [µg/mL] |
| --- | --- | --- | --- | --- | --- | --- | --- | --- | --- | --- | --- | --- | --- | --- | --- | --- | --- | --- | --- | --- |
| COC/C=C\C1=C(C(=O)O)N2C(=O)[C@@H](NC(=O)[C@H](N)c3ccc(O)cc3)[C@H]2SC1 [Compound 17, 7β-[D-2-Amino-2-(p-hydroxyphenyl)acetamido]-3-[(Z)-3-methoxy-1-propen-1-yl]-3-cephem-4-carboxylic Acid] | 0.53 (≈ 1.26 µM) | 19000 | 24000 | 0.6 | 28000 | 18000 | 1.6 | 197000 | 73000 | 1.7 | 2.1 (≈ 5.01 µM) |  |  |  |  |  |  |  |  |  |
| N[C@@H](C(=O)N[C@@H]1C(=O)N2C(C(=O)O)=C(C=CCSc3cnn[nH]3)CS[C@H]12)c1ccc(O)cc1 [Compound 21, 7β-[D-2-Amino-2-(p-hydroxyphenyl)acetamido]-3-[3-(1H-1,2,3-triazol-5-yl)thio-1-propen-1-yl]-3-cephem-4-carboxylic Acid] | 0.61 (≈ 1.25 µM) | 9600 | 16000 | 0.54 | 6600 | 1700 | 2.6 | 19000 | 4400 | 3.2 | 2.7 (≈ 5.53 µM) | Uniformly good oral absorption is reflected except for Compound No. 21 |  |  |  |  |  |  |  |  |
| C/C=C\C1=C(C(=O)O)N2C(=O)[C@@H](NC(=O)[C@H](N)c3ccccc3)[C@H]2SC1 [Compound 24, 7β-(D(-)-2-Amino-2-phenylacetamido)-3-[(Z)-1-propen-1-yl]-3-cephem-4-carboxylic acid] | 0.23 (≈ 0.616 µM) | 22000 | 31000 | 0.5 | 15000 | 7800 | 1.3 | 84000 | 40000 | 1.1 | 0.92 (≈ 2.46 µM) |  | 0.58 | 0.69 | 1.1 | 1.5 | more active against the Gram- infection | 0.18 | 0.3 (≈ 0.803 µM) | 0.92 (≈ 2.46 µM) |
| C/C=C\C1=C(C(=O)O)N2C(=O)[C@@H](NC(=O)[C@H](N)c3ccc(O)c(Cl)c3)[C@H]2SC1 [Compound 32, 7β-[D-2-Amino-2-(3-chloro-4-hydroxyphenyl)acetamido]-3-[(Z)-1-propen-1-yl]-3-cephem-4-carboxylic acid] |  | 13000 | 21000 | 0.48 | 13000 | 7900 | 1.7 | 37000 | 25000 | 1.7 |  |  |  |  |  | 3.04 |  | 0.17 | 0.13 (≈ 0.307 µM) | 0.53 (≈ 1.25 µM) |
